From patent US9302999B2, “Substituted triazoles as herbicides” (E. I. DU PONT DE NEMOURS AND COMPANY, priority 2012, dated 2016)

Legend:
Assay type in all cases: in vivo
[1] = system: bromegrass, downy (downy bromegrass, Bromus tectorum); test: Test D pre-/postemergence: bromegrass, downy
Summary of the method: (§1)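 Visual ratings from 0 (no effect) to 100 (complete control) were made 14–21 days after treatment, relative to controls. Applications were preemergence to seeds in silt loam, or postemergence to 2–18 cm (1–4 leaf) plants in peat-based medium. Compounds were formulated in a surfactant-containing non-phytotoxic solvent.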

[2] = system: kochia (Kochia scoparia); test: Test D pre-/postemergence: kochia
Summary of the method: as §1

[3] = system: barley, winter (winter barley, Hordeum vulgare); test: Test D pre-/postemergence: barley, winter
Summary of the method: as §1

[4] = system: field violet (Viola arvensis); test: Test D pre-/postemergence: field violet
Summary of the method: as §1

[5] = system: lambsquarters (Chenopodium album); test: Test D pre-/postemergence: lambsquarters
Summary of the method: as §1

[6] = system: speedwell (bird's-eye speedwell, Veronica persica); test: Test D pre-/postemergence: speedwell
Summary of the method: as §1

[7] = system: wheat, spring (spring wheat, Triticum aestivum); test: Test D pre-/postemergence: wheat, spring
Summary of the method: as §1

[8] = system: bermudagrass (Cynodon dactylon); test: Test C pre-/postemergence: bermudagrass
Summary of the method: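 Visual injury scored 0–100 (100 = complete control) against untreated controls after 13–15 greenhouse days. Surfactant-containing solvent formulations applied either to soil after sowing (loam/sand) or over 1- to 4-leaf plants, 2–18 cm tall.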

[9] = Postemergence, 31 g ai/ha, scale 0 to 100 (0 no effect, 100 complete control)
[10] = Postemergence, 62 g ai/ha, scale 0 to 100 (0 no effect, 100 complete control)
[11] = Postemergence, 125 g ai/ha, scale 0 to 100, 0 no effect, 100 complete control
[12] = Postemergence, 250 g ai/ha, scale 0 to 100 (0 no effect, 100 complete control)
[13] = Postemergence, 16 g ai/ha, scale 0 to 100
[14] = Preemergence, 16 g ai/ha, scale 0 to 100 (0 no effect, 100 complete control)
[15] = Preemergence, 31 g ai/ha, scale 0 to 100 (0 no effect, 100 complete control)
[16] = Preemergence, 62 g ai/ha, scale 0 to 100
[17] = Preemergence, 125 g ai/ha, scale 0 to 100
[18] = Preemergence, 250 g ai/ha, scale 0 to 100
[19] = Preemergence, 62 g ai/ha, scale of 0 to 100, 0 is no effect, 100 is complete control
[20] = Preemergence, 125 g ai/ha, scale 0 to 100, 0 no effect, 100 complete control
[21] = Preemergence, 250 g ai/ha, scale 0 to 100, 0 no effect, 100 complete control

Structure (SMILES): CCOc1nn(-c2ccc(F)cc2)nc1Cc1ccnc(C(F)F)c1 [Compound 195]
- Plant response rating: Bromegrass, Downy [1, 9]: 15
- Plant response rating: Bromegrass, Downy [1, 10]: 20
- Plant response rating: Bromegrass, Downy [1, 11]: 35
- Plant response rating: Bromegrass, Downy [1, 12]: 40
- Plant response rating, Bromegrass, Downy [1, 13]: 5
- Plant response rating, Bromegrass, Downy [1, 14]: 0
- Plant response rating, Bromegrass, Downy [1, 15]: 0
- Plant response rating, Bromegrass, Downy [1, 16]: 25
- Plant response rating, Bromegrass, Downy [1, 17]: 35
- Plant response rating, Bromegrass, Downy [1, 18]: 50
- Plant response rating: Kochia [2, 9]: 85
- Plant response rating: Kochia [2, 10]: 95
- Plant response rating: Kochia [2, 11]: 100
- Plant response rating: Kochia [2, 12]: 100
- Plant response rating, Kochia [2, 13]: 70
- Plant response rating, Kochia [2, 14]: 40
- Plant response rating, Kochia [2, 15]: 50
- Plant response rating, Kochia [2, 16]: 60
- Plant response rating, Kochia [2, 17]: 80
- Plant response rating, Kochia [2, 18]: 85
- Plant response rating: Barley, Winter [3, 9]: 10
- Plant response rating: Barley, Winter [3, 10]: 15
- Plant response rating: Barley, Winter [3, 11]: 30
- Plant response rating: Barley, Winter [3, 12]: 45
- Plant response rating, Barley, Winter [3, 13]: 0
- Plant response rating, Barley, Winter [3, 14]: 0
- Plant response rating, Barley, Winter [3, 15]: 0
- Plant response rating, Barley, Winter [3, 16]: 0
- Plant response rating, Barley, Winter [3, 17]: 0
- Plant response rating, Barley, Winter [3, 18]: 20
- Plant response rating: Field Violet [4, 9]: 70
- Plant response rating: Field Violet [4, 10]: 75
- Plant response rating: Field Violet [4, 11]: 85
- Plant response rating: Field Violet [4, 12]: 95
- Plant response rating, Field Violet [4, 13]: 70
- Plant response rating: Lambsquarters [5, 9]: 75
- Plant response rating: Lambsquarters [5, 10]: 80
- Plant response rating: Lambsquarters [5, 11]: 95
- Plant response rating: Lambsquarters [5, 12]: 100
- Plant response rating, Lambsquarters [5, 13]: 60
- Plant response rating, Lambsquarters [5, 14]: 0
- Plant response rating, Lambsquarters [5, 15]: 0
- Plant response rating, Lambsquarters [5, 16]: 0
- Plant response rating, Lambsquarters [5, 17]: 30
- Plant response rating, Lambsquarters [5, 18]: 75
- Plant response rating: Speedwell [6, 9]: 100
- Plant response rating: Speedwell [6, 10]: 100
- Plant response rating: Speedwell [6, 11]: 100
- Plant response rating: Speedwell [6, 12]: 100
- Plant response rating, Speedwell [6, 13]: 100
- Plant response rating, Speedwell [6, 14]: 30
- Plant response rating, Speedwell [6, 15]: 100
- Plant response rating, Speedwell [6, 16]: 100
- Plant response rating, Speedwell [6, 17]: 100
- Plant response rating, Speedwell [6, 18]: 100
- Plant response rating: Wheat, Spring [7, 9]: 10
- Plant response rating: Wheat, Spring [7, 10]: 20
- Plant response rating: Wheat, Spring [7, 11]: 25
- Plant response rating: Wheat, Spring [7, 12]: 35
- Plant response rating, Wheat, Spring [7, 13]: 5
- Plant response rating, Wheat, Spring [7, 14]: 0
- Plant response rating, Wheat, Spring [7, 15]: 0
- Plant response rating, Wheat, Spring [7, 16]: 0
- Plant response rating, Wheat, Spring [7, 17]: 0
- Plant response rating, Wheat, Spring [7, 18]: 0
- Plant response rating, Bermudagrass [8, 9]: 40
- Plant response rating, Bermudagrass [8, 10]: 60
- Plant response rating, Bermudagrass [8, 11]: 90
- Plant response rating, Bermudagrass ([8]; Postemergence, 250 g ai/ha, scale 0 to 100): 95
- Plant response rating, Bermudagrass ([8]; Preemergence, 31 g ai/ha, scale 0 (no effect) to 100 (complete control)): 98
- Plant response rating, Bermudagrass [8, 19]: 98
- Plant response rating, Bermudagrass [8, 20]: 98
- Plant response rating, Bermudagrass [8, 21]: 98

Structure (SMILES): Cc1nn(-c2ccc(F)c(C(F)(F)F)c2)nc1Oc1ccnc(C(F)(F)F)c1 [Compound 147]
- Plant response rating: Bromegrass, Downy [1, 9]: 5
- Plant response rating: Bromegrass, Downy [1, 10]: 15
- Plant response rating: Bromegrass, Downy [1, 11]: 50
- Plant response rating, Bromegrass, Downy [1, 13]: 5
- Plant response rating, Bromegrass, Downy [1, 14]: 0
- Plant response rating, Bromegrass, Downy [1, 15]: 5
- Plant response rating, Bromegrass, Downy [1, 16]: 10
- Plant response rating, Bromegrass, Downy [1, 17]: 15
- Plant response rating: Kochia [2, 9]: 85
- Plant response rating: Kochia [2, 10]: 90
- Plant response rating: Kochia [2, 11]: 95
- Plant response rating, Kochia [2, 13]: 70
- Plant response rating, Kochia [2, 14]: 15
- Plant response rating, Kochia [2, 15]: 15
- Plant response rating, Kochia [2, 16]: 50
- Plant response rating, Kochia [2, 17]: 70
- Plant response rating: Barley, Winter [3, 9]: 20
- Plant response rating: Barley, Winter [3, 10]: 25
- Plant response rating: Barley, Winter [3, 11]: 30
- Plant response rating, Barley, Winter [3, 13]: 15
- Plant response rating, Barley, Winter [3, 14]: 0
- Plant response rating, Barley, Winter [3, 15]: 0
- Plant response rating, Barley, Winter [3, 16]: 5
- Plant response rating, Barley, Winter [3, 17]: 15
- Plant response rating: Field Violet [4, 9]: 95
- Plant response rating: Field Violet [4, 10]: 100
- Plant response rating: Field Violet [4, 11]: 90
- Plant response rating, Field Violet [4, 13]: 95
- Plant response rating, Field Violet [4, 14]: 75
- Plant response rating, Field Violet [4, 15]: 100
- Plant response rating, Field Violet [4, 16]: 95
- Plant response rating, Field Violet [4, 17]: 100
- Plant response rating: Lambsquarters [5, 9]: 75
- Plant response rating: Lambsquarters [5, 10]: 90
- Plant response rating: Lambsquarters [5, 11]: 95
- Plant response rating, Lambsquarters [5, 13]: 75
- Plant response rating, Lambsquarters [5, 14]: 5
- Plant response rating, Lambsquarters [5, 15]: 50
- Plant response rating, Lambsquarters [5, 16]: 80
- Plant response rating, Lambsquarters [5, 17]: 85
- Plant response rating, Speedwell [6, 14]: 10
- Plant response rating, Speedwell [6, 15]: 20
- Plant response rating, Speedwell [6, 16]: 100
- Plant response rating, Speedwell [6, 17]: 100
- Plant response rating: Wheat, Spring [7, 9]: 15
- Plant response rating: Wheat, Spring [7, 10]: 20
- Plant response rating: Wheat, Spring [7, 11]: 25
- Plant response rating, Wheat, Spring [7, 13]: 10
- Plant response rating, Wheat, Spring [7, 14]: 0
- Plant response rating, Wheat, Spring [7, 15]: 0
- Plant response rating, Wheat, Spring [7, 16]: 0
- Plant response rating, Wheat, Spring [7, 17]: 5
- Plant response rating, Bermudagrass ([8]; Preemergence, 31 g ai/ha, scale of 0 to 100, 0 is no effect, 100 is complete control): 100
- Plant response rating, Bermudagrass [8, 19]: 100
- Plant response rating, Bermudagrass [8, 20]: 100
- Plant response rating, Bermudagrass [8, 21]: 100
